In US20150018325A1, “METHOD FOR LATE POST COITAL CONTRACEPTION USING ULIPRISTAL ACETATE” (LABORATOIRE HRA-PHARMA, priority 2010, published 2015):
“And” between values parts separate entries of the source, which are not always exact repeats. Equal values may be shown once. “Also recorded” adds a separate entry of the source.

Assays:
[1] = tested on: women presenting 48-120 hours after unprotected intercourse; experiment: Prospective multicenter, open label study of ulipristal acetate as emergency contraception 48-120 hours after unprotected intercourse (Example 1); assay type: in vivo; conditions: for Observed Pregnancy Rate (%): single 30 mg dose
Method: Women 18 and older who presented for emergency contraception at family planning clinics located in the United States, 48-120 hours after UPI and who met the inclusion/exclusion criteria were enrolled into the study after signing the IRB approved informed consent. The inclusion criteria were regular menstrual cycles 24-35 (+/−5) days in length, no current use of hormonal contraception, willingness not to use hormonal contraception until study completion, and agreement to use barrier methods of contraception from enrollment to study completion. Exclusion criteria included pregnancy, breastfeeding, IUD, tubal ligation or partner vasectomy, and uncertainty about recent menstrual history.
A total of up to three visits were scheduled over the course of the study. The first visit, considered Day 1, included the screening and treatment phases. A high sensitivity urine pregnancy test (level of detection 20 mIU/ml) was performed and a blood sample was taken and stored for later serum quantitative β-hCG testing to exclude pre-existing pregnancy if a pregnancy was detected during the study.
Women were provided daily diaries in which to record further acts of intercourse, contraception used, vaginal spotting or bleeding, concomitant medication and adverse events during study duration.
At follow-up visit (5-7 days after expected onset of menses) a high-sensitivity urine pregnancy test was systematically performed. If the urine pregnancy was positive, this was confirmed by a serum β-hCG test. The pre-treatment serum specimen was also assayed for β-hCG to verify whether the pregnancy pre-dated intake of the study drug. Confirmed pregnancies were further evaluated by scrum quantitative hCG(s) and transvaginal ultrasound(s) to determine the estimated fertilization date.
Women could enroll in the study more than once but they must have completed prior study participation before re-enrolling.
The primary efficacy measurement was the pregnancy rate, defined as the number of pregnancies after administration of ulipristal acetate for EC divided by the number of women treated. The primary efficacy analysis compared this pregnancy rate to the pregnancy rate that would have been expected in the absence of EC treatment, which was calculated according to Trussell's method (Trussell et al, 1998) using the pooled recognizable set of conception probabilities and the estimated cycle day of UPI based on self-reported date of last menstrual period, cycle length and date of UPI.
The main secondary efficacy analysis compared the upper bound of the 95% confidence interval of the observed pregnancy rate to a clinical irrelevance threshold of 4%. This threshold corresponds to a reduction by half of the expected 8% pregnancy rate in the absence of contraception as observed in previous international studies (Von Hertzen et al, 1998; Piaggio, 1999; Von Hertzen et al, 2002). The study was to be considered a success only if both the primary efficacy and the main secondary analyses were conclusive. Other secondary analyses included calculation of the prevented fraction, defined as the number of pregnancies prevented (expected minus observed) divided by the number of pregnancies expected, and analysis of trend in pregnancy rates over time (by 24-hour interval) using a logistic regression model.
The population analyzed for primary efficacy excluded women who were lost to follow-up and women ages 36 and older due to reduced fertility in this age category based upon FDA guidance. Further participations in the study allowed by protocol were also excluded from primary efficacy evaluation, as well as pregnancies that were determined as not compatible with study drug failure by a Data Safety Monitoring Board (DSMB) consisting of independent experts.
Study enrolment was stopped once 1200 subjects meeting the criteria for the primary efficacy analysis had completed the study.

[2] = used within 72 hours of UPI; cited from earlier work
[3] = tested on: women treated with ulipristal acetate in the two trials; experiment: Pooled efficacy analysis of Example 1 and Example 2 (Example 3); assay type: in vivo; conditions: mITT pooled population
Text: When the efficacy data of women treated with ulipristal acetate in the two trials (Example 1 and Example 2) are grouped in a pooled analysis, further evidence of the efficacy of the method is provided.

[4] = tested on: women presenting 0-120 hours after unprotected intercourse; experiment: Prospective multicenter, single-blind randomized study of ulipristal acetate versus levonorgestrel as emergency contraception 0-120 hours after unprotected intercourse (Example 2); assay type: in vivo
Method: This was a prospective, single-blind (subject and sponsor blind, investigator not blind), randomized, multicenter, 2-arm parallel comparative study designed to evaluate the efficacy of a single dose of ulipristal acetate (30 mg tablets) compared to levonorgestrel (1.5 mg) administered for EC within 120 hours after unprotected intercourse. It was performed in 10 centers in Europe and 25 centers in the US. Women ([…]), with regular menstrual cycles (between 24 and 35 days and intra-individual variations less than or equal to 5 days), who presented for EC within 120 hours after unprotected intercourse at a participating study site and who met the inclusion/exclusion criteria were enrolled into the study after they signed informed consent form. Subjects were excluded from the study in case of ongoing pregnancy or breast-feeding or current use of hormonal contraception or IUD. The study medication (ulipristal acetate 30 mg or levonorgestrel 1.5 mg) was administered according to a random allocation procedure generated electronically. Treatment was administered orally immediately after all eligibility criteria (including negative urine pregnancy test) had been verified. At follow-up visit (5-7 days after expected onset of menses) a high-sensitivity urine pregnancy test was systematically performed. If the urine pregnancy was positive, this was confirmed by a serum β-hCG test. The pre-treatment serum specimen was also assayed for β-hCG to verify whether the pregnancy pre-dated intake of the study drug. Confirmed pregnancies were further evaluated by scrum quantitative hCG(s) and transvaginal ultrasound(s) to determine the estimated fertilization date. Based on previous similar clinical trials, pregnancy rates in the ulipristal acetate and levonorgestrel group were expected to be 1% and 1.7% respectively. […] For this comparison, the non-inferiority margin was set to 1.6 in odds ratio (a non-inferiority margin of 1.6 in odds ratio is equivalent to a non-inferiority margin of 1% in percent point with an assumed pregnancy rate with levonorgestrel of 1.7%) with a type I error rate of 5% (two-sided) and 85% power. In order to compensate for an anticipated lost to follow-up rate of 10%, 910 patients per group had to be included in the 0-72 hour time interval. Furthermore, recruitment of patients requesting emergency contraception between 72 h and 120 h was estimated to represent 1 out of 10 patients. Therefore, taking into account recruitment in the 72-120 h interval, 1022 patients per group were to be randomized for a total of 2044 patients. […] In order to ensure unbiased evaluation of pregnancy data, an independent, autonomous DSMB composed of two experts in the field of gynecology, one methodologist and one expert in ethical questions was established to review incidence of pregnancy with respect to unacceptability threshold and give recommendations during the course of the clinical trial. In addition, the DSMB assessed whether each pregnancy was “compatible” or “not compatible” with treatment failure based on available data.

[5] = 48-72 h after UPI, mITT population
[6] = >72-96 h after UPI, mITT population
[7] = >96-120 h after UPI, mITT population
[8] = 0-72 h mITT, ulipristal acetate 30 mg or levonorgestrel 1.5 mg single oral dose
[9] = >24 to <=48 hours relative to the previous 24 hrs time interval, mITT
[10] = >48 to <=72 hours relative to the previous 24 hrs time interval, mITT
[11] = >72 to <=96 hours relative to the previous 24 hrs time interval, mITT
[12] = mITT, unprotected intercourse within 72 hours of EC intake (p=0.253)
[13] = mITT, unprotected intercourse within 120 hours of EC intake (p=0.127)

SMILES: CC(=O)O[C@]1(C(C)=O)CC[C@H]2[C@@H]3CCC4=CC(=O)CCC4=C3[C@@H](c3ccc(N(C)C)cc3)C[C@@]21C [ulipristal acetate, 17α-acetoxy-11β-[4-N,N-dimethylamino-phenyl)-19-norpregna-4,9-diene-3,20-dione]
- Effectiveness (Prevented Fraction) [1, 5]: 61.9%
- Observed Pregnancy Rate (%) [1, 5]: 2.3%
- Effectiveness (Prevented Fraction) [1, 6]: 57.9%
- Observed Pregnancy Rate (%) [1, 6]: 2.1%
- Effectiveness (Prevented Fraction) [1, 7]: 75.0%
- Observed Pregnancy Rate (%) [1, 7]: 1.3%
- Observed Pregnancy Rate (%) ([1]; All (48-120 h after UPI), mITT / Primary Efficacy Population): 2.1%
- Effectiveness (Prevented Fraction) ([1]; All (48-120 h after UPI), mITT population, expected pregnancies by Trussell's method): 62.3%
- observed pregnancy rate ([1]; Safety Population of 1533 women, 48-120 h after UPI): 1.9%
- pregnancies detected at follow-up ([1]; all women enrolled, before DSMB exclusion of 3 pregnancies): 29
- linear trend of pregnancy rates over time (logistic regression model) ([1]; by 24-hour interval, 48-120 h after UPI, p=0.2490): no evidence of change in efficacy over time
- efficacy for preventing pregnancy compared with levonorgestrel [2]: as effective as levonorgestrel; also recorded: as efficacious as levonorgestrel
- Overall observed pregnancy rate (%) (pooled) ([3]; 0-24 h): 1.60%
- Overall observed pregnancy rate (%) (pooled) ([3]; >24-48 h): 2.07%
- Overall observed pregnancy rate (%) (pooled) ([3]; >48-72 h): 2.16%
- Overall observed pregnancy rate (%) (pooled) ([3]; >72-96 h): 1.76%
- Overall observed pregnancy rate (%) (pooled) ([3]; >96-120 h): 1.04%
- Pregnancy Rate n ([4]; 0-72 h mITT (n = 1694)): 15
- Pregnancy Rate (%) [4, 8]: 1.78%
- Pregnancy Rate (%) ([4]; 0-72 h mITT, ulipristal acetate 30 mg or levonorgestrel 1.5 mg single oral dose, listed as Ulipristal acetate): 1.8%
- Pregnancy Rate (%) ([4]; 0-120 h mITT): 1.60%
- Pregnancy Rate n ([4]; 0-120 h mITT (n = 1899)): 15
- Pregnancy Rate (%) ([4]; 0-120 h mITT, listed as Ulipristal acetate): 1.6%
- Pregnancy Rate (%) ([4]; 72-120 h mITT): 0.0%
- Pregnancy Rate n ([4]; 72-120 h mITT (n = 203)): no pregnancy was observed
- Pregnancy Rate n ([4]; 72-120 h mITT (n = 203), listed as Ulipristal acetate): 0
- Pregnancy Rate (%) ([4]; >0 to <=24 hours from unprotected intercourse to treatment, mITT): 1.6%
- Pregnancy Rate (%) ([4]; >24 to <=48 hours from unprotected intercourse to treatment, mITT): 2.13% and 2.1%
- Odds ratio [4, 9]: 1.33
- Pregnancy Rate (%) ([4]; >48 to <=72 hours from unprotected intercourse to treatment, mITT): 1.48% and 1.5%
- Odds ratio [4, 10]: 0.69
- Odds ratio [4, 11]: 0.00
- prevented expected pregnancies [4, 12]: 68.1%
- prevented expected pregnancies [4, 13]: 72.2%
- pregnancies prevented compared to the expected pregnancy rate, ulipristal acetate versus levonorgestrel ([4]; p<0.05 one-sided randomization test within 120 hours, p<0.05 two-sided between 72 and 120 hours, mITT): significantly more pregnancies were prevented with ulipristal acetate than levonorgestrel

SMILES: C#C[C@]1(O)CC[C@H]2[C@@H]3CCC4=CC(=O)CC[C@@H]4[C@H]3CC[C@@]21CC [levonorgestrel]
- Pregnancy Rate n ([4]; 0-72 h mITT (n = 1694)): 22
- Pregnancy Rate (%) [4, 8]: 2.59%
- Pregnancy Rate (%) ([4]; 0-72 h mITT, ulipristal acetate 30 mg or levonorgestrel 1.5 mg single oral dose, listed as Levonorgestrel): 2.6%
- Pregnancy Rate (%) ([4]; 0-120 h mITT): 2.6%
- Pregnancy Rate n ([4]; 0-120 h mITT (n = 1899)): 25
- Pregnancy Rate (%) ([4]; 72-120 h mITT): 2.8%
- Pregnancy Rate n ([4]; 72-120 h mITT (n = 203)): 3
- Odds ratio [4, 9]: 0.73
- Odds ratio [4, 10]: 1.17
- Odds ratio [4, 11]: 1.08
- Odds ratio ([4]; >96 to <=120 hours relative to the previous 24 hrs time interval, mITT): 1.11
- prevented expected pregnancies [4, 12]: 52.2%
- prevented expected pregnancies [4, 13]: 52.8%
